# Test results taken from patent US9957271B2, “Substituted bicyclic aza-heterocycles and analogues as sirtuin modulators” (GlaxoSmithKline, LLC, priority 2012, dated 2018).
# Like-named read-outs stand apart in the source and are kept apart here.
# Molecular target: T1, SIRT1 (Homo sapiens, UniProt Q96EB6)
# T1 sequence (Q96EB6 1-747): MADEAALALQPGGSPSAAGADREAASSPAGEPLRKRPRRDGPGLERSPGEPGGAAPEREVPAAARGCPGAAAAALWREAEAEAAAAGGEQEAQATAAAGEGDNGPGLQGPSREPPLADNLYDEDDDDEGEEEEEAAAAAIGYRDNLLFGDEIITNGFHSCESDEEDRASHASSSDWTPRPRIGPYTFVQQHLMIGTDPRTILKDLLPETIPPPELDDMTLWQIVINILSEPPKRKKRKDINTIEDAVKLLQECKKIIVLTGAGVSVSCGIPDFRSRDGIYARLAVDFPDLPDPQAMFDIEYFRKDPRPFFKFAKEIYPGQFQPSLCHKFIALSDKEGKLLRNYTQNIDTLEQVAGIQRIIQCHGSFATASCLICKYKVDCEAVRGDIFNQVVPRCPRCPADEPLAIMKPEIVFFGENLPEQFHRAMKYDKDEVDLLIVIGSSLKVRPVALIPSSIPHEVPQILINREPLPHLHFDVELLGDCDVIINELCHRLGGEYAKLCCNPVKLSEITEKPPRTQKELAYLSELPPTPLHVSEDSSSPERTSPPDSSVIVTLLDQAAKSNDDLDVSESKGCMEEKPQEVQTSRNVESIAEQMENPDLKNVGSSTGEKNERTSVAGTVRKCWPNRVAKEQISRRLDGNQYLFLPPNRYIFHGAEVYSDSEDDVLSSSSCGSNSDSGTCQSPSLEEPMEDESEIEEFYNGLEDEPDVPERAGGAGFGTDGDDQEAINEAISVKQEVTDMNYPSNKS
# Assay: TAMRA based mass spectrometry assay of SIRT1 activity
# Assay type: biochemical
# Details: for Emax: read-out: TAMRA % Fold Act
# Method in brief: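 Deacetylation of a biotinylated, TAMRA-tagged p53-based peptide (0.5 μM) by 10 nM His-tagged SIRT1 with 120 μM βNAD+, 25 °C for 25 min, pH 8 Tris-acetate buffer, across a compound concentration range. Quenched by formic acid and read by mass spec as product peptide or OAADPR; activity relative to DMSO reactions, nicotinamide defining maximal inhibition.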
# [1] = TAMRA assay, concentration giving 150% activation of SIRT1
# [2] = TAMRA assay, percent maximum fold activation
# [3] = TAMRA peptide substrate, concentration giving 150% activation of SIRT1
# [4] = TAMRA peptide substrate, percent maximum fold activation
# [5] = concentration of test compound giving 150% activation of SIRT1, TAMRA peptide substrate
# [6] = percent maximum fold activation of SIRT1, TAMRA peptide substrate
TAMRA EC1.5 (μM) [1],Emax [2] [%],TAMRA EC1.5 (μM) [5],Emax [6] [%],Compound,also measured
A (EC1.5<1 μM),≥ 350,–,–,Cc1cc(NC(=O)c2c(C)nn3ccc(-c4ccccc4C(F)(F)F)nc23)cc(C)n1 [Compound 648],–
A (EC1.5<1 μM),≥ 350,–,–,Cc1ccc(NC(=O)c2cnn3ccc(-c4ccccc4C(F)(F)F)nc23)cn1 [Compound 631],–
B (EC1.5 1-25 μM),≥ 350,–,–,Cc1cc2ncc(C(=O)Nc3cnccn3)n2nc1-c1ccccc1C(F)(F)F [Compound 246],–
A (EC1.5<1 μM),≥ 350,–,–,N#Cc1ccccc1-c1ccc2ncc(NC(=O)c3cccc(N4CCOCC4)n3)n2n1 [Compound 337],–
A (EC1.5<1 μM),< 350,–,–,O=C(Nc1ccnc(OCC(O)CO)c1)c1cnc2ccc(-c3ccccc3Cl)nn12 (centres unmarked) [Compound 283],–
C (EC1.5>25 μM),–,–,–,O=C(Nc1ncccn1)c1c(O)nc2ccc(-c3ccccc3C(F)(F)F)nn12 [Compound 342],–
–,–,–,–,Cc1cc(C)nc(NC(=O)c2cnc3ccc(N4CCCC(C(F)(F)F)C4)nn23)c1 (centres unmarked) [Compound 579],TAMRA EC1.5 [3]: B (EC1.5 1-25 μM); Emax [4]: < 350%
–,–,–,–,Cc1cc(NC(=O)c2c(C)nc3c(C)cc(-c4ccccc4C(F)(F)F)nn23)cc(C)n1 [Compound 432],TAMRA EC1.5 [3]: A (EC1.5<1 μM); Emax [4]: ≥ 350%
–,–,A (EC1.5<1 μM),≥ 350,O=C(Nc1ccnc(N2CCCC2)c1)c1cnc2ccc(-c3ccccc3C(F)F)nn12 [Compound 40],–
B (EC1.5 1-25 μM),≥ 350,–,–,O=C(Nc1cncc(OCC(O)CO)n1)c1c(O)nc2ccc(-c3ccccc3C(F)(F)F)nn12 (centres unmarked) [Compound 345],–
–,–,–,–,O=C(Nc1ccnc(N2CC3(CCO3)C2)n1)c1cnc2ccc(-c3ccccc3C(F)(F)F)nn12 [Compound 592],TAMRA EC1.5 [3]: A (EC1.5<1 μM); Emax [4]: ≥ 350%
–,–,B (EC1.5 1-25 μM),< 350,O=C(Nc1ccncc1)c1cnc2ccc(-c3ccccc3F)nn12 [Compound 136],–
–,–,–,–,Cc1nn2ccc(-c3ccccc3C(F)(F)F)nc2c1NC(=O)c1cccc(CN2CCOCC2)n1 [Compound 573],TAMRA EC1.5 [3]: B (EC1.5 1-25 μM); Emax [4]: < 350%
–,–,B (EC1.5 1-25 μM),< 350,O=C(Nc1ccccn1)c1cnc2ccc(-c3ccccc3Cl)nn12 [Compound 117],–
–,–,B (EC1.5 1-25 μM),< 350,O=C(Nc1ccncc1)c1cnc2ccc(-c3ccccc3Cl)nn12 [Compound 94],–
–,–,A (EC1.5<1 μM),< 350,N#Cc1ccccc1-c1ccc2ncc(C(=O)Nc3cccc(N4CCOCC4)n3)n2n1 [Compound 191],–
A (EC1.5<1 μM),≥ 350,–,–,Cc1nc2ccc(-c3ccccc3OC[C@H](O)CO)nn2c1C(=O)Nc1ccc(F)cn1 [Compound 819],–
–,–,B (EC1.5 1-25 μM),< 350,O=C(Nc1cnccn1)c1cnc2ccc(-c3ccccc3F)nn12 [Compound 139],–
C (EC1.5>25 μM),< 350,–,–,Cc1nc2ccc(-c3ccccc3Cl)nn2c1NC(=O)c1cnccn1 [Compound 347],–
–,–,A (EC1.5<1 μM),≥ 350,O=C(Nc1ncc(N2CCOCC2)s1)c1cnc2ccc(-c3ccccc3C(F)(F)F)nn12 [Compound 151],–
A (EC1.5<1 μM),≥ 350,–,–,Cc1cc(C)nc(C(=O)Nc2cnn3ccc(-c4ccccc4OC(F)(F)F)nc23)c1 [Compound 750],–
A (EC1.5<1 μM),≥ 350,–,–,Cc1nc(NC(=O)c2c(C)nn3ccc(-c4ccccc4C(F)(F)F)nc23)sc1C [Compound 651],–
–,–,A (EC1.5<1 μM),≥ 350,O=C(Nc1cccc(N2CCOCC2)n1)c1nnc2ccc(-c3ccccc3C(F)(F)F)nn12 [Compound 67],–

Compound,TAMRA EC1.5 (μM) [1],Emax [2] [%],TAMRA EC1.5 (μM) [5],Emax [6] [%],also measured
"O=C(Nc1ccncc1)c1cnn2ccc(-c3ccccc3C(F)(F)F)nc12 [Compound 240, N-(pyridin-4-yl)-5-(2-(trifluoromethyl)phenyl)pyrazolo[1,5-a]pyrimidine-3-carboxamide]",A (EC1.5<1 μM),≥ 350,–,–,–
